Values quoted from earlier work, collected in patent US20070015720A1, “Modulation of endogenous AICAR levels for the treatment of diabetes and obesity” (CytRx Corporation, priority 2005, published 2007).

How the values were obtained:
[1] = test system: obese Zucker (fa/fa) rats; conditions: long term treatment, high doses
[2] = test system: adipocytes
[3] = test system: 3T3L1 adipocytes
[4] = mice, murine pouch model of inflammation
[5] = low dose, psoriasis patients, day of dosing

Compound	fasting concentrations of glucose and insulin [1]	plasma triglyceride and free fatty acid levels [1]	systolic blood pressure [1]	adipocyte differentiation [2]	non-insulin stimulated glucose uptake [3]	increase of AICAR-monophosphate in splenocytes [4]	urinary excretion of aminoimidazole carboxamide (AICA) [5]
NC(=O)c1ncn([C@@H]2O[C@H](CO)[C@@H](O)[C@H]2O)c1N [AICAR, 5-aminoimidazole-4-carboxamide ribonucleoside]	decrease	reduce	decrease	inhibits adipocyte differentiation at an early stage	increase	–	–
CN(Cc1cnc2nc(N)nc(N)c2n1)c1ccc(C(=O)N[C@@H](CCC(=O)O)C(=O)O)cc1 [methotrexate]	–	–	–	–	–	three-fold	statistically significant increase
O=C(O)c1cc(/N=N/c2ccc(S(=O)(=O)Nc3ccccn3)cc2)ccc1O [sulfasalazine]	–	–	–	–	–	three-fold	–
